Data published in the NIST ThermoML archive (doi:10.1021/je100927m).

Experiments:
[1] = Liquid; for mass density: 101.33 kPa; for speed of sound: Pulse-echo method
[2] = refractive index (Na D-line) (dimensionless); details: 298.15 K; 101.33 kPa; Liquid; Standard Abbe refractometry

CCCCC(CC)CO (stereo unspecified) [2-ethyl-1-hexanol]
[1]
Details	mass density [kg/m3]
283.15 K	839.89
288.15 K	836.26
293.15 K	832.62
298.14 K	828.96
303.15 K	825.28
308.15 K	821.58
313.14 K	817.86
318.15 K	814.11
323.15 K	810.33
328.15 K	806.52
333.15 K	802.68
338.14 K	798.8
343.15 K	794.87
348.15 K	790.91
353.15 K	786.89
358.15 K	782.83
363.15 K	778.72

speed of sound [m/s], [1]
Details	101 kPa	15200 kPa	30390 kPa	45590 kPa	60790 kPa	75990 kPa	91180 kPa	101320 kPa
292.89 K	–	1418.5	1487.2	1549.6	1607.2	1660.4	1710.5	1742
293.15 K	1336.3	–	–	–	–	–	–	–
298.15 K	1318.4	–	–	–	–	–	–	–
298.19 K	–	1400.2	1470.1	1533.2	1591.5	1645.4	1696	1728
303.15 K	1300.6	1383.5	1454.4	1518.4	1577.5	1631.8	1682.7	1715.1
308.13 K	–	1367.2	1438.9	1503.8	1563.5	1618.6	1669.8	1702.5
308.15 K	1282.8	–	–	–	–	–	–	–
313.1 K	–	1351.2	1424	1489.6	1549.7	1605.5	1657.2	1689.9
313.15 K	1264.9	–	–	–	–	–	–	–
318.15 K	1247.1	–	–	–	–	–	–	–
318.26 K	–	1334.8	1408.8	1475.2	1535.9	1592.2	1644.5	1677.4

Details	refractive index
[2]	1.4292
